The text below walks through data of paper PMC12196235, “Enhancing the Pharmacological Properties of Triterpenes Through Acetylation: An Anticancer and Antioxidant Perspective” (Molecules, 2025).

Values joined by “and” are separate entries in the source; they are usually repeats but may differ in a detail not shown here. Equal values may be shown once. Read-outs that look alike come from different tables or passages of the source. Bounds are passed on as bounds.

Data set [1] has as its system HeLa, KB, MCF-7, A-549, PC-3 and SKOV-3. Nature of the data set: MTT assay, summary over the cancer cell lines. The format is cell-based, human. The following applies: classification by IC50 (good ≤ 10 μM, moderate 10–30 μM, ref 83). How it is done:
(§1) All the cell lines and mediums were obtained from the American Type Culture Collection (ATCC) supplied by LGC-Standards (Lomianki, Poland). Human cancer cell lines were cultured as follows: HeLa (human cervix carcinoma) and KB (human oral squamous carcinoma) lines were cultured in DMEM (Dulbecco’s Modified Eagle’s Medium); MCF-7 (human breast carcinoma) and A-549 (human lung carcinoma) were cultured in RPMI 1640 medium; PC-3 (human prostate carcinoma) was cultured in F-12K medium; SKOV-3 (human ovarian cystadenocarcinoma) was cultured in McCoy’s modified medium; HDF (human normal dermal fibroblasts) was cultured in Fibroblast Basal Medium. Each medium was supplemented with 10% fetal bovine serum, 1% L- glutamine and 1% penicillin/streptomycin solution. The cell lines were kept in an incubator at 37 °C.
(§2) All the tested cell lines (HeLa, KB, MCF-7, A-549, PC-3, SKOV-3 and HDF) were subjected to MTT assay. In short, this assay is based on the reaction between mitochondria enzymes (dehydrogenases) of tested cell lines and 3-(4,5-dimethylthiazol-2-yl)-2,5-diphenyltetrazolium bromide (MTT). The final product of this reaction gives violet formazan crystals. The number of live cells is proportional to the amount of formazan and is represented by the violet dye reagent. The details of the experiments are given in [19].

A further data set is described as follows: CUPRAC antioxidant assay. As to conditions: calculated from Trolox standard curve. How it is done: (§3) The results are presented as % inhibition of the copper(II) ions and Trolox equivalent calculated from the standard curve (Figure 9) and as % inhibition of the DPPH radical and Trolox equivalent, calculated from the standard curve (Figure 10).
(§4) The CUPRAC reagent (7.5 mM ethanolic 96% neocuproine solution, 10 mM CuCl2 × H2O solution and an ammonium acetate buffer of pH 7.0) and DPPH reagent (2,2-diphenyl-1-picrylhydrazyl 0.2 mM solution) were applied.
(§5) The CUPRAC method measures the reducing power of a sample by quantifying its ability to convert the Cu-neocuproine reagent complex to the Cu(I) form. In contrast, the DPPH assay relies on the ability of an antioxidant to donate a hydrogen atom or an electron to the stable DPPH radical, resulting in its reduction and subsequent color change. The results are presented as % inhibition of the copper(II) ions and Trolox equivalent calculated from the standard curve (Figure 9) and as % inhibition of the DPPH radical and Trolox equivalent, calculated from the standard curve (Figure 10). The spectroscopic detection in CUPRAC and DPPH assays was conducted with Synergy H1 Multi-Mode Microplate Reader (BioTek Instruments, Inc., Winooski, VT, USA). The details of the experiments are given in [102].

Another data set in a line: DPPH antioxidant assay. The following applies: calculated from Trolox standard curve. As for the experimental part:
as §3, §4, §5

In data set [2] the test system is SKOV-3 (human ovarian carcinoma). The following applies: MTT assay, data published earlier, read-out: IC50 (±SD), SKOV-3; cited from earlier work.
Data set [3] concerns HDF (human dermal fibroblasts). As to conditions: MTT assay, normal dermal fibroblasts; data published earlier; read-out: IC50 (±SD), HDF; cited from earlier work.
Data set [4] deals with HSV-1/153 (Herpes simplex virus type 1 ACV-resistant strain). The following applies: ref 15; read-out: antiviral EC50 (HSV-1/153); cited from earlier work.
The subject of data set [5] is HSV-1/106 (Herpes simplex virus type 1 ACV-resistant strain). As to conditions: ref 15; read-out: antiviral EC50 (HSV-1/106); cited from earlier work.
Data set [6] concerns HSV-1/Blue (Herpes simplex virus type 1 ACV-resistant strain). The following applies: ref 15; read-out: antiviral EC50 (HSV-1/Blue); cited from earlier work.
The test system of a further data set is Staphylococcus aureus. As to conditions: ref 16; cited from earlier work.
For another data set, the system named is Escherichia coli. The following applies: ref 16; cited from earlier work.
In a further data set the test system is Salmonella typhi. The following applies: ref 16; cited from earlier work.
For data set [7], the system named is KB (human oral squamous carcinoma). As to conditions: ref 104; cited from earlier work.
The subject of data set [8] is Hep-G2 (human hepatocellular carcinoma). As to conditions: cited from earlier work.
For data set [9], the system named is HCT-116 (human colorectal carcinoma). The following applies: ref 20; cited from earlier work.
The test system of data set [10] is HT-29 (human colorectal adenocarcinoma). As to conditions: ref 105; read-out: IC50 (HT-29); cited from earlier work.
Data set [11] has as its system A-549 (human lung carcinoma). The following applies: cited from earlier work.
Data set [12] relates to KB-VIN (multidrug resistant human epidermoid carcinoma). As to conditions: ref 104; cited from earlier work.
In data set [13] the test system is B16-F10 (murine melanoma). The following applies: cited from earlier work.
Another data set deals with RAW 264.7. The following applies: ref 106; cited from earlier work.
Data set [14] has as its system J774A.1 (macrophage-like cell line). The following applies: ref 106; cited from earlier work.
The subject of data set [15] is HeLa (human cervical epithelioid carcinoma). The data set is described as follows: MTT assay, HeLa. The class given is cell-based. As to conditions: IC50 HDF / IC50 HeLa. As for the experimental part:
as §1, §2

Data set [16] has as its system KB (human oral squamous carcinoma). The data set is described as follows: MTT assay, KB. The format is cell-based. The following applies: IC50 HDF / IC50 KB. As for the experimental part:
as §1, §2

Data set [17] concerns MCF-7 (human breast carcinoma). Nature of the data set: MTT assay, MCF-7. The class given is cell-based. The following applies: IC50 HDF / IC50 MCF-7. As for the experimental part:
as §1, §2

Data set [18] concerns A-549 (human lung carcinoma). Nature of the data set: MTT assay, A-549. The class given is cell-based. The following applies: IC50 HDF / IC50 A-549. How it is done:
as §1, §2

The test system of data set [19] is PC-3 (human prostate carcinoma). Nature of the data set: MTT assay, PC-3. The class given is cell-based. How it is done:
as §1, §2

Data set [20] relates to SKOV-3 (human ovarian carcinoma). The data set is described as follows: MTT assay, SKOV-3. The class given is cell-based. As for the experimental part:
as §1, §2

Data set [21] has as its system HDF (human dermal fibroblasts). The data set is described as follows: MTT assay, normal HDF. As to conditions: Homo sapiens, Fibroblast, read-out: IC50 (±SD), HDF. The class given is cell-based. As for the experimental part: as §1, §2
Data set [22] has as its system HeLa (human cervical epithelioid carcinoma). As to conditions: MTT assay, data published earlier, read-out: IC50 (±SD), HeLa; cited from earlier work.
The test system of data set [23] is KB (human oral squamous carcinoma). As to conditions: MTT assay, data published earlier; cited from earlier work.
For data set [24], the system named is MCF-7 (human breast carcinoma). The following applies: MTT assay, data published earlier, read-out: IC50 (±SD), MCF-7; cited from earlier work.
For data set [25], the system named is A-549 (human lung carcinoma). The following applies: MTT assay, data published earlier, read-out: IC50 (±SD), A-549; cited from earlier work.
Data set [26] relates to MCF-7 (human breast carcinoma). As to conditions: ref 55; read-out: anticancer IC50 (MCF-7); cited from earlier work.
For data set [27], the system named is HeLa (human cervical epithelioid carcinoma). As to conditions: ref 56; read-out: anticancer IC50 (HeLa); cited from earlier work.
The subject of data set [28] is MDA MB-231 (human epithelial adenocarcinoma). Also noted: method as in doi:10.1002/slct.201803101. As to conditions: ref 56; read-out: anticancer IC50 (MDA MB-231); cited from earlier work.

Take `CC1(C)CC[C@]2(C(=O)O)CC[C@]3(C)C(=CC[C@@H]4[C@@]5(C)CC[C@H](O)C(C)(C)[C@@H]5CC[C@]43C)[C@@H]2C1` [1a, oleanolic acid]: the “cytotoxic activity class” value in data set [1] is on record as “high or moderately high activity”. Further, in the data set “CUPRAC antioxidant assay”, the “Trolox Equivalent, CUPRAC Assay” value is listed as 0.1031 ± 0.00684 mg/mL. For the same molecule, the “Trolox Equivalent, DPPH Assay” value in the data set “DPPH antioxidant assay” is reported as 0.02633 ± 0.00109 mg/mL. Besides, the concentration for half-maximal inhibition (IC50) in data set [2] was 18.8 µM; in [3], 24.9 µM; in data set [7], above 10 µM; in data set [8] (ref 18, 19, read-out: anticancer IC50 (Hep-G2)) it was 16.2 µM; in data set [8] (ref 105, read-out: IC50 (Hep-G2)) it was 212 µM; in data set [10] it was 430 µM. In addition, the IC50 was 6.4 µM in data set [11] (ref 104, read-out: IC50 (A-549)); above 10 µM in [12]; 106 µM in [13] (ref 105); 106 µM in [13] (ref 107); 41.7 µM with RAW 264.7; 35.2 µM in [14]. For the same molecule, the EC50 in data set [4] was 13.1 µM; in data set [5], 12.9 µM; in data set [6], 13.1 µM. Further, the “antibacterial MBC (Staphylococcus aureus)” value in the data set on Staphylococcus aureus was 700 µg/mL. Moreover, in the data set on Staphylococcus aureus, the “antibacterial MIC (S. aureus)” value is 95 µg/mL. In addition, the “antibacterial MBC (Escherichia coli)” value in the data set with Escherichia coli was 900 µg/mL. In the data set with Escherichia coli, the “antibacterial MIC (E. coli)” value is 95 µg/mL. Also, the “antibacterial MBC (Salmonella typhi)” value in the data set on Salmonella typhi is 300 µg/mL. Further, in the data set on Salmonella typhi, the “antibacterial MIC (S. typhi)” value was 65 µg/mL. In data set [9], the “anticancer IC50 (HCT-116)” value is listed as “anticancer: IC50 = 40 µg × mL^−1 (HCT-116)”.
With `C=C(C)[C@@H]1CC[C@]2(C)CC[C@]3(C)[C@H](CC[C@@H]4[C@@]5(C)CC[C@H](O)C(C)(C)[C@@H]5CC[C@]43C)[C@@H]12` [6a, lupeol], the “Selectivity index (SI), HeLa” value in [15] is 0.77. The “Selectivity index (SI), KB” value in data set [16] was determined as 0.57. Besides, the “Selectivity index (SI), MCF-7” value in [17] is listed as 0.56. Further, in [18], the “Selectivity index (SI), A-549” value came out at 0.63. Also, the IC50 is 14.5 µM in [19] (Homo sapiens, MTT assay, PC-3, read-out: IC50 (±SD), PC-3); 14.6 µM in data set [20] (Homo sapiens, SK-OV-3, MTT assay, SKOV-3, read-out: IC50 (±SD), SKOV-3); 29 µM in [21]; 37.7 µM in data set [22]; 51.2 µM in data set [23]; 51.8 µM in data set [24]. Moreover, the IC50 in data set [25] was 45.7 µM; in data set [26], 80 µM; in [27] it was 31.9 µM; in [11] (ref 56, read-out: anticancer IC50 (A-549)) it was 64.8 µM; in data set [28], 46.1 µM. In addition, the “Selectivity index (SI), PC-3” value in [19] (IC50 HDF / IC50 PC-3) is reported as 2.00. For the same molecule, the “Selectivity index (SI), SKOV-3” value in data set [20] (IC50 HDF / IC50 SKOV-3) is listed as 1.99. Besides, the “Trolox Equivalent, CUPRAC Assay” value in “CUPRAC antioxidant assay” is 0.136 mg/mL and 0.136 ± 0.00593 mg/mL.
